# From article PMC7215373, “Design, Synthesis, and Anticancer Evaluation of Novel Indole Derivatives of Ursolic Acid as Potential Topoisomerase II Inhibitors” (International Journal of Molecular Sciences, 2020)
# Tests used:
# Format in all cases: cell-based, human
# [1] = system: SMMC-7721 cells; test: JC-1 mitochondrial membrane potential assay; details: 24 h, control 1.29%
# Method: It has been widely believed that intracellular ROS accumulation could decrease mitochondrial membrane potential (ΔΨm), which is a characteristic phenomenon of early apoptosis. To investigate the correlation between ΔΨm and apoptosis induced by compound 5f, the measurement of cells with decreased ΔΨm were carried out by JC-1 assay kit on the instructions of the manual.
# The JC-1 mitochondrial membrane potential assay kit (Keygene Biotech., Nanjing, China) was employed to measure mitochondrial depolarization in SMMC-7721 cells. The fluorescence probe JC-1 was used to detect the change of mitochondrial membrane potential. Briefly, cells cultured in six-well plates after indicated treatments by compound 5f were incubated with an equal volume of JC-1 staining solution (5 μg/mL) at 37 °C for 20 min and rinsed twice with PBS. Mitochondrial membrane potentials were monitored by determining the relative amounts of dual emissions from mitochondrial JC-1 monomers or aggregates using flow cytometry (Becton-Dickinson FACSCalibur, Franklin Lakes, NJ, USA). Mitochondrial membrane depolarization is indicated by an increase in the percentage of cells with low ΔΨm (green fluorescence, lower right quadrant) compared with cells with high ΔΨm (red fluorescence, upper right quadrant).
# [2] = system: SMMC-7721 cells; test: Annexin V-FITC/PI staining apoptosis assay by flow cytometry; details: 48 h, control 4.41%
# Method: To further investigate the role of apoptosis in the antitumor activity of compound 5f, SMMC-7721 cells were treated with different concentrations of compound 5f (0, 0.3, 0.6, and 1.2 μM) for 48 h. Then the treated cells were stained with Annexin V-FITC/PI followed by flow cytometry analysis.
# The extent of apoptosis was quantitatively measured using Annexin V-FITC/PI dual staining assay. SMMC-7721 cells were seeded into a six-well plate at 5 × 10^5 cells per well in 10% fetal calf serum (FBS)-DMEM into six-well plates and treated with different concentrations of the indicated compound 5f for 48 h. The cells were detached with 0.25% trypsin, washed with ice-cold PBS for twice and then resuspended in 1 × Binding buffer (0.1 M Hepes/NaOH (pH 7.4), 1.4 M NaCl, 25 mM CaCl2). The cells were stained with 5 μL of Annexin V-FITC and 5 μL of PI ([…]) to each tube. The cells were gently vortexed and incubated in the dark at room temperature for 15 min and then kept at 4 °C. The samples were analyzed by a flow cytometer (Becton-Dickinson FACSCalibur, Franklin Lakes, NJ, USA), and data were analyzed using the FlowJo software (Becton-Dickinson Biosciences, Franklin Lakes, NJ, USA).
# [3] = system: SMMC-7721 cells; test: AO/EB double staining assay; details: 0.3, 0.6 and 1.2 μM, 48 h
# From the text: Apoptosis induced by compound 5f was further evaluated using acridine orange / ethidium bromide (AO/EB) double staining. AO, as a vital dye showing green fluorescence, can pass through cell membrane of living or dead cells, while EB only stains apoptotic or necrotic cells that have lost their integrity and appear red fluorescence. Therefore, the normal cells will be stained only by AO with bright green while apoptotic cells will be stained by AO and EB with red-orange [26, 27].
# SMMC-7721 cells were seeded into six-well plates and incubated at 37 °C with 5% CO2 for 24 h. Then, the cells were exposed to different concentrations of compound 5f (0, 0.3, 0.6, and 1.2 μM) for 48 h. After that, 10 μL of each fluorescent dye cantaining AO and EB (10 μg/mL) were added to each well in equal volumes respectively and incubated for 5 min in the dark. The cells were visualized through an inverted fluorescence microscope (Olympus 1X71 Inverted System Microscope, Olympus, Tokyo, Japan).
# [4] = system: HepG2 cells; test: MTT cytotoxicity assay, HepG2; details: 48 h exposure
# Method: The in vitro cytotoxic activities of synthesized compounds were evaluated against two human hepatocarcinoma cell lines (SMMC-7721 and HepG2) and the human normal hepatocyte cell line (LO2) via MTT assay. All tested compounds were dissolved in DMSO and the stock solutions were diluted by DMEM medium before treatment of the cultured cells. […] Cell lines were obtained from American Tissue Culture Collection (ATCC). Briefly, different tumor cells were grown in DMEM medium supplemented with 10% fetal bovine serum, penicillin (100 U/mL), and streptomycin (50 μg/mL). Cells were harvested at log phase of growth and seeded in 96-well plates (100 μL/well at a density of 2 × 10^5 cells/mL). After 24 h incubation at 37 °C and 5% CO2 to allow cell attachment, cultures were exposed to various concentrations of the isolated compounds for 48 h. Finally, MTT solution (2.5 mg/mL in PBS) was added (40 μL/well). Plates were further incubated for 4 h at 37 °C, and the formazan crystals formed were dissolved by adding 150 μL/well of DMSO. Absorption at 570 nm was measured with an ELISA plate reader. […] Doxorubicin, camptothecin, and etoposide (VP-16) were co-assayed as positive controls.
# [5] = system: SMMC-7721 cells; test: ROS generation assay (DCFH-DA, flow cytometry); details: 48 h, control 3.97%
# Method: Reactive oxygen species (ROS), which can exert oxidative stress to cells and lead to disturbances in mitochondrial membrane potential, are important mediators for the induction of apoptosis in many cancer cells. To determine whether the apoptosis induced by compound 5f was associated with intracellular ROS level, SMMC-7721 cells treated with different concentrations of 5f were stained with the fluorescent probe DCFH-DA and analyzed by flow cytometry.
# ROS generation assay was performed by using the reactive oxygen species assay kit (Beyotime Biotech., Shanghai, China). Intracellular ROS generation was tested through dichlorodihydro fluorescein diacetate (DCFH-DA) assay. DCFH-DA is taken up by SMMC-7721 cells, and then activated by esterase-mediated cleavage of acetate to form dichlorodihydro fluorescein (DCFH), which is trapped in the cells. DCFH is converted to fluorescein DCF in the presence of ROS. SMMC-7721 cells were seeded in six-well plates and incubated with different concentrations of compound 5f for 48 h. After removing the compound solution, cells were treated with 10 μM of DCFH-DA at 37 °C for 20 min. Subsequently, the cells were washed with PBS for three times and then exposed to light. Immediately after light exposure, the fluorescence intensity of dichlorofluorescein (DCF) was measured with excitation at 488 nm and emission at 525 nm by a flow cytometry (Becton-Dickinson FACSCalibur, Franklin Lakes, NJ, USA).
structure (smiles),measurement,setting,value
"Cc1ccc2[nH]c3c(c2c1)C[C@@]1(C)C(CC[C@]2(C)C1CC=C1C4[C@@H](C)[C@H](C)CC[C@]4(C(=O)NCCCN4CCN(C)CC4)CC[C@]12C)C3(C)C (stereo partly drawn) [5f, N-(3-(4-Methylpiperazin-1-yl)propyl)-5′-methyl-1′H-ursa-2,12-dieno[3,2-b]indol-28-carboxamide]",percentage of cells with low ΔΨm,[1]; 0.3 μM,7.43%
same,percentage of cells with low ΔΨm,[1]; 0.6 μM,16.28%
same,percentage of cells with low ΔΨm,[1]; 1.2 μM,32.34%
same,percentage of early and late apoptotic cells,[2]; 0.3 μM,9.13%
same,percentage of early and late apoptotic cells,[2]; 0.6 μM,21.36%
same,percentage of early and late apoptotic cells,[2]; 1.2 μM,30.33%
same,apoptosis by AO/EB staining (fluorescence microscopy),[3],induced apoptosis
same,IC50,[4],0.91 ± 0.13 µM
same,IC50,"[4]; Homo sapiens, HepG2, 48 h",~1 µM
same,cells with elevated ROS levels (% relative ROS raised cells),[5]; 0.3 μM,9.89%
same,cells with elevated ROS levels (% relative ROS raised cells),[5]; 0.6 μM,19.84%
same,cells with elevated ROS levels (% relative ROS raised cells),[5]; 1.2 μM,34.61%
